Reference: US20250281645A1, “Lentiviral Vector” (Ospedale San Raffaele S.r.l., priority 2022, published 2025)

Assays:
Conditions in all cases: mouse, in vivo
Adult mice = tested on: Adult mice
C57 mice = tested on: C57 mice
Experimental: (§1) (a) Experimental design: 8 weeks old mice C57 or Ldlr^−/− (n=4-6 per each condition) are injected with Bortezomib and/or Marl and/or fasted for 24 hours, before receiving LV (dose 2.75×10^10 TU/Kg) i.v. Then, hFIX is monitored in treated mice longitudinally. (b, c) Mean with SEM of hFIX antigen measured in the plasma of LV treated mice over time (4 and 26 wk post LV timepoint). Two-way ANOVA with Dunnett's multiple comparisons test vs LV control, performed for each of the two strains used.
(§2) According to the groups, mice were either faster for 24 hours, injected with Marl 3 hours before LV and/or injected with Bortezomib 1-hour before LV. Circulating hFIX amounts were then monitored longitudinally (FIG. 11A).
Wild-type C57Bl/6 adults, Ldlr/adults, Alb-F8*R593C adults, Ldlr^−/− 2-week old mice and C57 BI/6 2-week old were used in these studies. Founder B6; 129S-7-Ldlrtm1 Her/J mice (referred to as Ldlr^−/−) were obtained from the Jackson Laboratories (stock #:002207). […] C57BL/6 mice were purchased from Jackson laboratories (stock #000664). […]
(§3) hFIX ELISA assay was used to assess hFIX concentration in mouse plasma samples (Affinity Biologicals, FIX-EIA), in accordance with the manufacturer's protocol. Absorbance of each sample was determined spectrophotometrically, using a Multiskan GO microplate reader (Thermo Fisher Scientific) and normalized to antigen standard curves.

Ldlr^−/− mice = tested on: Ldlr^−/− mice
Experimental: as §1, §2
Wild-type C57Bl/6 adults, Ldlr/adults, Alb-F8*R593C adults, Ldlr^−/− 2-week old mice and C57 BI/6 2-week old were used in these studies. Founder B6; 129S-7-Ldlrtm1 Her/J mice (referred to as Ldlr^−/−) were obtained from the Jackson Laboratories (stock #:002207). […] C57BL/6 mice were purchased from Jackson laboratories (stock #000664). […] LV was administered in adult mice, males and females (7-10-weeks of age), through either tail vein or retro-orbital plexus (250-500 μL/mouse). LV was administered in juvenile mice (2 weeks of age) through retro-orbital plexus (100-200 μL/mouse). Mice were bled from the retro-orbital plexus through capillary tubes. Blood was collected in 0.38% sodium citrate buffer, pH 7.4. […] For fasting experiments, mice were starved for 24-hours and then treated or not with LV. For experiments with Bortezomib (Velcade), the drug (1 mg/kg) was administered, once diluted in saline, i.v. 1 hour before LV administration. […]
as §3

CC(C)C[C@H](NC(=O)[C@H](Cc1ccccc1)NC(=O)c1cnccn1)B(O)O [Bortezomib]
VCN in KC (Adult mice): reduced VCN | VCN in LSEC (Adult mice): increase | VCN in hepatocytes (Adult mice): trend of increase | VCN in pDC (Adult mice): reduced VCN | hFIX circulating amounts versus controls (Adult mice; iv): higher than controls | transgene output in combination with fasting, versus LV controls (C57 mice): 11-12 fold | transgene output compared to LV only, single treatment (C57 mice; iv): enhanced transgene output | overall increase in transgene output, combination of fasting and Bortezomib (Ldlr^−/− mice): 4.5-6 fold | transgene output when combined with fasting, compared to use as single treatments (Ldlr^−/− mice): milder increase in Ldlr^−/− than C57 | transgene output, single treatment (Ldlr^−/− mice): give an advantage
